SMILES strings stand for the structures.

Chain of hormone sensitive lipase, HSL (P15304 301-1068, change not shown): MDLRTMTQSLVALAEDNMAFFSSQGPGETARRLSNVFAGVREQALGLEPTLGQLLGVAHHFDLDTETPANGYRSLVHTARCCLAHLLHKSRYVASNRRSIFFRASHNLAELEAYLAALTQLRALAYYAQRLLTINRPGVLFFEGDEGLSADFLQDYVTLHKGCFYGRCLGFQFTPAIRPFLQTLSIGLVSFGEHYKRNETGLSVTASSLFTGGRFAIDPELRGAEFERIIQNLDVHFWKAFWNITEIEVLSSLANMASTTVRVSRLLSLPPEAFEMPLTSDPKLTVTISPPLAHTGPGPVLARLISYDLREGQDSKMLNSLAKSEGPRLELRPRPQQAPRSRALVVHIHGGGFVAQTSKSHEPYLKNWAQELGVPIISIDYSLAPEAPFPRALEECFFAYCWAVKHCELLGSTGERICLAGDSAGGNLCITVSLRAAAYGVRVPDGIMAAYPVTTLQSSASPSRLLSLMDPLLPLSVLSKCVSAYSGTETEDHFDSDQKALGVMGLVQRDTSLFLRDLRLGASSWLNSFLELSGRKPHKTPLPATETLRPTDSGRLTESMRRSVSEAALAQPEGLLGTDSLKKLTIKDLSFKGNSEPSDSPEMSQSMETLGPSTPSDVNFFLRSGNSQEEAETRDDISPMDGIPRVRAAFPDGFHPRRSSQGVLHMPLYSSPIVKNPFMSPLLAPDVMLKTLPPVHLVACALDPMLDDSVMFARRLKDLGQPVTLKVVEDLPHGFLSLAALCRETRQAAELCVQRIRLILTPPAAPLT
Chain of endothelial lipase (EL) (Q9Y5X9 21-500, species assumed): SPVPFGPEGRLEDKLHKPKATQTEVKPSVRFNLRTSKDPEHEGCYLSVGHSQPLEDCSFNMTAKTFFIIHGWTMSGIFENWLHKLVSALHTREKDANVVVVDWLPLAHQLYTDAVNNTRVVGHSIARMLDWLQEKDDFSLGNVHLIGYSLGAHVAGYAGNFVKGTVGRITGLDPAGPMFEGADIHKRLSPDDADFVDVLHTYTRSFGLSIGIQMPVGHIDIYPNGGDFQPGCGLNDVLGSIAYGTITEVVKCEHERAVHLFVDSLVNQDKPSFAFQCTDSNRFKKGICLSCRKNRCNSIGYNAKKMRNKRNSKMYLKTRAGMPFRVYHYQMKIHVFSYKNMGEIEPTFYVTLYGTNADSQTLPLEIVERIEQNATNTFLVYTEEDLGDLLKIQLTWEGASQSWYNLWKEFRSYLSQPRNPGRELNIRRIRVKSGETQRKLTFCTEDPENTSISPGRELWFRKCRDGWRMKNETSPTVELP

The target of one experiment is hormone sensitive lipase, HSL (Rattus norvegicus (Rat), UniProt P15304). Put plainly: HSL inhibition assay. The settings on record: partially purified HSL from rat fat cells; [3H]trioleoylglycerol substrate. Type of experiment: biochemical. The procedure:
1.1. Preparation of the Partially Purified HSL:
Isolated rat fat cells are obtained from epididymal adipose tissue from untreated male rats (Wistar, 220-250 g) by collagenase treatment in accordance with published methods (e.g. S, Nilsson et al., Anal. Biochem. 158, 1986, 399-407; G. Fredrikson et al., J. Biol. Chem. 256, 1981, 6311-6320; H. Tornquist et al., J. Biol. Chem. 251, 1976, 813-819). The fat cells from 10 rats are washed three times by flotation with 50 ml of homogenization buffer ([…] Tris/HCl, pH 7.4, 0.25 M sucrose, 1 mM ETDA, 1 mM DTT, 10 μg/ml leupeptin, 10 μg/ml antipain, 20 μg/ml pepstatin) each time and finally taken up in 10 ml of homogenization buffer. The fat cells are homogenized in a Teflon-in-glass homogenizer (Braun-Melsungen) by 10 strokes at 1500 rpm and 15° C. The homogenate is centrifuged (Sorvall SM24 tubes, 5000 rpm, 10 min, 4° C.). The subnatant between the layer of fat at the top and the pellet is removed and the centrifugation is repeated. The subnatant resulting therefrom is centrifuged again (Sorvall SM24 tubes, 20 000 rpm, 45 min, 4° C.). The subnatant is removed, and 1 g of heparin-Sepharose (Pharmacia-Biotech, CL-6B, washed 5× with 25 mM Tris/HCl, pH 7.4, 150 mM NaCl) is added. After incubation at 4° C. for 60 min (shaking at intervals of 15 min), the mixture is centrifuged (Sorvall SM24 tubes, 3000 rpm, 10 min, 4° C.). The supernatant is adjusted to pH 5.2 by adding glacial acetic acid and is incubated at 4° C. for 30 min. The precipitates are collected by centrifugation (Sorvall SS34, 12 000 rpm, 10 min, 4° C.) and suspended in 2.5 ml of 20 mM Tris/HCl, pH 7.0, 1 mM EDTA, 65 mM NaCl, 13% sucrose, 1 mM DTT, 10 μg/ml leupeptin/pepstatin/antipain. The suspension is dialyzed against 25 mM Tris/HCl, pH 7.4, 50% glycerol, 1 mM DTT, 10 μg/ml leupeptin, pepstatin, antipain at 4° C. overnight and then loaded onto a hydroxyapatite column (0.1 g per 1 ml of suspension, equilibrated with 10 mM potassium phosphate, pH 7.0, 30% glycerol, 1 mM DTT). The column is washed with four volumes of equilibration buffer at a flow rate of 20 to 30 ml/h. The HSL is eluted with one volume of equilibration buffer containing 0.5 M potassium phosphate and then dialyzed (see above) and concentrated 5- to 10-fold by ultrafiltration (Amicon Diaflo PM 10 Filter) at 4° C. The partially purified HSL can be stored at −70° C. for 4 to 6 weeks.
To prepare the substrate, 25-50 μCi of [3H]trioleoylglycerol (in toluene), 6.8 μmol of unlabeled trioleoylglycerol and 0.6 mg of phospholipids (phosphatidylcholine/phosphatidylinositol 3:1 w/v) are mixed, dried with N2 and then taken up in 2 ml of 0.1 M KPi (pH 7.0) by ultrasound treatment (Branson 250, microtip, setting 1-2, 2×1 min with an interval of 1 min). After addition of 1 ml of KPi and renewed ultrasound treatment (4×30 sec on ice with intervals of 30 sec), 1 ml of 20% BSA (in KPi) is added (final concentration of trioleoylglycerol 1.7 mM). For the reaction, 100 μl of substrate solution are pipetted into 100 μl of HSL solution (HSL prepared as above, diluted in 20 mM KPi, pH 7.0, 1 mM EDTA, 1 mM DTT, 0.02% BSA, 20 μg/ml pepstatin, 10 μg/ml leupeptin) and incubated at 37° C. for 30 min. Addition of 3.25 ml of methanol/chloroform/heptane (10:9:7) and of 1.05 ml of 0.1 M K2CO3, 0.1 M boric acid (pH 10.5) is followed by thorough mixing and finally centrifugation (800×g, 20 min). After phase separation, one equivalent of the upper phase (1 ml) is removed and the radioactivity is determined by liquid scintillation measurement.
1.3 Evaluation of the HSL-Inhibitory Effect:
Substances are normally tested in four independent mixtures. The inhibition of the HSL enzymatic activity by a test substance is determined by comparing with an uninhibited control reaction. The IC50 is calculated from an inhibition plot with at least 10 concentrations of the test substance. The GRAPHIT, Elsevier-BIOSOFT software package is used to analyze the data.
In the case of `CC1CCN(C(=O)Oc2noc3cc(Cl)ccc23)CC1` [Example 1, 6-Chlorobenzo[d]isoxazol-3-yl 4-methylpiperidine-1-carboxylate], the IC50 (as a rule, the concentration that gives 50% inhibition) turned out to be 0.12 µM.

In the case of `CC1CCN(C(=O)Oc2noc3ncccc23)CC1` [Example 2, Isoxazolo[5,4-b]pyridin-3-yl 4-methylpiperidine-1-carboxylate], the IC50 worked out at 0.12 µM.

Take `O=C(Oc1noc2cc(Cl)ccc12)N1CCC(C(F)(F)F)CC1` [Example 3, 6-Chlorobenzo[d]isoxazol-3-yl 4-trifluoromethylpiperidine-1-carboxylate]: the IC50 came to 0.1 µM.

As for `CC1CCN(C(=O)Oc2nsc3ncccc23)CC1` [Example 4, Isothiazolo[5,4-b]pyridin-3-yl 4-methylpiperidine-1-carboxylate], the IC50 amounted to 0.1 µM.

Compound `CC1CCN(C(=O)Oc2nsc3ccccc23)CC1` [Example 5, Benzo[d]isothiazol-3-yl 4-methylpiperidine-1-carboxylate] had an IC50 of 0.1 µM.

In the case of `CC1CCN(C(=O)Oc2noc3nc(Cl)ccc23)CC1` [Example 10, 6-Chloroisoxazolo[5,4-b]pyridin-3-yl 4-methylpiperidine-1-carboxylate], the IC50 turned out to be 0.67 µM.

`Cc1ccc2c(OC(=O)N3CCC(C)CC3)noc2n1` [Example 11, 6-Methylisoxazolo[5,4-b]pyridin-3-yl 4-methylpiperidine-1-carboxylate] yielded an IC50 of 0.26 µM.

The target of another experiment is endothelial lipase (EL) (Homo sapiens (Human), UniProt Q9Y5X9). Put plainly: EL inhibition assay. It is filed as biochemical. The settings on record: EL from conditioned medium of recombinant cell lines (CHO, HEK293); Bodipy phospholipid substrate. The text has this:
EL is released as secretory protein in high concentration into cell culture medium (conditioned medium) by recombinant cell lines (CHO, HEK293). This is employed as enzyme solution after concentration.
The phospholipase-specific substrate 1,2-bis(4,4-difluoro-5,7-dimethyl-4-bora-3a,4a-diaza-s-indacene-3-undecanoyl)-sn-glycero-3-phosphocholine, (manufacturer Molecular Probes) is used to characterize the enzymatic activity of endothelial lipase and the effect of inhibitors. Hydrolysis of the A1 ester linkage of this phospholipid by the enzyme liberates the fluorescent dye Bodipy which can be detected after separation by thin-layer chromatography on an HPTLC plate (silica gel 60, Merck) or directly in the reaction vessel by measuring the fluorescence.
The substrate solution is prepared by taking up 100 μg of 1,2-bis(4,4-difluoro-5,7-dimethyl-4-bora-3a,4a-diaza-s-indacene-3-undecanoyl)-sn-glycero-3-phospho-choline (manufacturer Molecular Probes), 2.4 mg of tripalmitin (Sigma) and 7.9 mg of DOP—choline (1,2-dioleoyi-sn-glycero-3-phosphocholine) in 393 μl of chloroform and then transferring 157 μl into a fresh reaction vessel. After evaporation of the solvent, the lipid mixture is dissolved in 4 ml of 200 mM TRIS-HCl, 150 mM sodium chloride, pH=7.4, by sonication twice. […] After evaporation of the eluent, the plate is read in a fluorescence scanner. […]
In the case of `Cc1ccccc1CNC(=O)Nc1nsc2ccc([N+](=O)[O-])cc12` [Example 7, 1-(2-Methylbenzyl)-3-(5-nitrobenzo[d]isothiazol-3-yl)urea], the IC50 is 14.6 µM.

For the compound `CCCCCCNC(=O)Nc1noc2ccccc12` [Example 8, 1-Benzo[d]isoxazol-3-yl-3-hexylurea], the IC50 was determined as 14.6 µM.

Values taken from patent US8921404B2, “Azole derivatives in the form of lipase and phospholipase inhibitors” (Sanofi, priority 2005, dated 2014).
